Measurements from article PMC4912218, “Targeted metabolomics of Gammarus pulex following controlled exposures to selected pharmaceuticals in water” (The Science of the Total Environment, 2016).
≈ marks a conversion by molar mass, not a printed value.

Key:
in vivo = conditions: in vivo
Method: From these toxicity profiles the NOAEL and the LOAEL were determined. Exposure experiments were performed in Pyrex® beakers, each containing 200 mL of AFW at 15 °C and ten adult animals (> 5 mg wet weight, ww). Live/dead animals were counted after 24 h by gently prodding and observing movement of appendages. The pharmaceutical concentrations tested were in the range of 0.01 to 250 mg L^− 1. […] Concentrations where 100, 50 and 0% of the animals died were repeated in duplicate or triplicate.

[1] = design: method as in Drugbank; conditions: ref Drugbank; cited from earlier work
Thamnocephalus platyurus = conditions: ref Kim et al., 2009; cited from earlier work

Row | Compound | LC50 at 24 h (in vivo) [µg/mL] | Water solubility [1] | 24 h- LC50 T. platyurus (Thamnocephalus platyurus) [µg/mL] | LC50 at 24 h (in vivo; Gammarus pulex) [µg/mL]
1 | CN(C)CCC=C1c2ccccc2CCc2ccccc21 [Amitriptyline] | 41.8 (≈ 150 µM) | – | – | –
2 | CC(C)(Oc1ccc(CCNC(=O)c2ccc(Cl)cc2)cc1)C(=O)O [Bezafibrate] | > 1 | Insoluble | – | –
3 | NC(=O)N1c2ccccc2C=Cc2ccccc21 [Carbamazepine] | > 112 | – | >100 | –
4 | CC(C)(Oc1ccc(Cl)cc1)C(=O)O [Clofibric acid] | > 250 | 0.5825 mg/mL | – | –
5 | O=C(O)Cc1ccccc1Nc1c(Cl)cccc1Cl [Diclofenac, Sodium diclofenac] | – | 50 mg/mL | – | –
6 | CC(C(=O)O)c1ccc(-c2ccccc2)c(F)c1 (stereo not drawn) [Flurbiprofen] | – | – | – | > 8
7 | Cc1ccc(C)c(OCCCC(C)(C)C(=O)O)c1 [Gemfibrozil] | 9.84 (≈ 39.3 µM) | <1 mg/mL | – | –
8 | CC(C)Cc1ccc(C(C)C(=O)O)cc1 (stereo not drawn) [Ibuprofen] | 44 (≈ 213 µM) | 100 mg/mL | – | –
9 | CN(C)CCCN1c2ccccc2CCc2ccccc21 [Imipramine] | 3.85 (≈ 13.7 µM) | 50 mg/mL | – | –
